What was measured:
Format in all cases: in vivo
[1] = tested on: Amaranthus retoflexus (AMARE); assay: Post-emergence herbicidal glasshouse test on Amaranthus retoflexus; settings: post-emergence; 1000 g/h; evaluated after 13 days
How it was run: (§1)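 Scoring scale: 5=80-100%, 4=60-79%, 3=40-59%, 2=20-39%, 1=0-19% damage, assessed on day 13. Compound sprayed at 1000 g/h on soil-grown plants (day 1 pre-, day 8 post-emergence) kept at 24/16 °C, 14 h light.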

[2] = tested on: Echinochloa crus-galli (ECHCG); assay: Post-emergence herbicidal glasshouse test on Echinochloa crus-galli; settings: post-emergence; 1000 g/h; evaluated after 13 days
How it was run: as §1

[3] = tested on: Alopecurus myosuroides (ALOMY); assay: Post-emergence herbicidal glasshouse test on Alopecurus myosuroides; settings: post-emergence; 1000 g/h; evaluated after 13 days
How it was run: as §1

[4] = tested on: Ipomoea hederacea (IPOHE); assay: Post-emergence herbicidal glasshouse test on Ipomoea hederacea; settings: post-emergence; 1000 g/h; evaluated after 13 days
How it was run: as §1

[5] = tested on: Echinochloa crus-galli (ECHCG); assay: Pre-emergence herbicidal glasshouse test on Echinochloa crus-galli; settings: pre-emergence; 1000 g/h; evaluated after 13 days
How it was run: as §1

Setaria faberi (SETFA) [6] = assay: Pre-emergence herbicidal glasshouse test on Setaria faberi; settings: pre-emergence; 1000 g/h; evaluated after 13 days
How it was run: as §1

[7] = tested on: Ipomoea hederacea (IPOHE); assay: Pre-emergence herbicidal glasshouse test on Ipomoea hederacea; settings: pre-emergence; 1000 g/h; evaluated after 13 days
How it was run: as §1

Setaria faberi (SETFA) [8] = assay: Post-emergence herbicidal glasshouse test on Setaria faberi; settings: post-emergence; 1000 g/h; evaluated after 13 days
How it was run: as §1

Solanum nigrum (SOLNI) [9] = assay: Post-emergence herbicidal glasshouse test on Solanum nigrum; settings: post-emergence; 1000 g/h; evaluated after 13 days
How it was run: as §1

[10] = tested on: Amaranthus retoflexus (AMARE); assay: Pre-emergence herbicidal glasshouse test on Amaranthus retoflexus; settings: pre-emergence; 1000 g/h; evaluated after 13 days
How it was run: as §1

[11] = tested on: Alopecurus myosuroides (ALOMY); assay: Pre-emergence herbicidal glasshouse test on Alopecurus myosuroides; settings: pre-emergence; 1000 g/h; evaluated after 13 days
How it was run: as §1

Solanum nigrum (SOLNI) [12] = assay: Pre-emergence herbicidal glasshouse test on Solanum nigrum; settings: pre-emergence; 1000 g/h; evaluated after 13 days
How it was run: as §1

Compound | POST Application AMARE herbicidal damage (five point scale) [1] | POST Application ECHCG herbicidal damage (five point scale) [2] | POST Application ALOMY herbicidal damage (five point scale) [3] | POST Application IPOHE herbicidal damage (five point scale) [4] | PRE Application ECHCG herbicidal damage (five point scale) [5] | PRE Application SETFA herbicidal damage (five point scale) (Setaria faberi (SETFA) [6]) | PRE Application IPOHE herbicidal damage (five point scale) [7] | POST Application SETFA herbicidal damage (five point scale) (Setaria faberi (SETFA) [8]) | POST Application SOLNI herbicidal damage (five point scale) (Solanum nigrum (SOLNI) [9]) | PRE Application AMARE herbicidal damage (five point scale) [10] | PRE Application ALOMY herbicidal damage (five point scale) [11] | PRE Application SOLNI herbicidal damage (five point scale) (Solanum nigrum (SOLNI) [12])
C=C(C)c1nn(C)c(=O)c(O)c1-c1ccc(S(C)(=O)=O)c(C2=NOCC2)c1C [Compound 2.023] | 5 (5=80-100% damage) | 5 (5=80-100% damage) | 5 (5=80-100% damage) | 5 (5=80-100% damage) | 5 (5=80-100% damage) | 1 (1=0-19% damage) | 4 (4=60-79% damage) | 5 (5=80-100% damage) | 5 (5=80-100% damage) | 5 (5=80-100% damage) | 5 (5=80-100% damage) | 5 (5=80-100% damage)
Cc1c(-c2c(C(C)C)nn(C)c(=O)c2O)ccc(S(C)(=O)=O)c1C1=NOCC1 [Compound 2.024] | 5 (5=80-100% damage) | 5 (5=80-100% damage) | 5 (5=80-100% damage) | 5 (5=80-100% damage) | 5 (5=80-100% damage) | 4 (4=60-79% damage) | 4 (4=60-79% damage) | 5 (5=80-100% damage) | 5 (5=80-100% damage) | 5 (5=80-100% damage) | 5 (5=80-100% damage) | 4 (4=60-79% damage)
Cc1c(-c2c(C#N)nn(C)c(=O)c2O)ccc(S(C)(=O)=O)c1C1=NOCC1 [Compound 2.025] | 5 (5=80-100% damage) | 4 (4=60-79% damage) | 2 (2=20-39% damage) | 4 (4=60-79% damage) | 1 (1=0-19% damage) | 1 (1=0-19% damage) | 5 (5=80-100% damage) | 1 (1=0-19% damage) | 5 (5=80-100% damage) | 5 (5=80-100% damage) | 1 (1=0-19% damage) | 5 (5=80-100% damage)
C#Cc1ccc(-c2cnn(C)c(=O)c2O)c(S(C)(=O)=O)c1 [Compound 2.028] | 5 (5=80-100% damage) | 5 (5=80-100% damage) | 5 (5=80-100% damage) | 5 (5=80-100% damage) | 5 (5=80-100% damage) | 4 (4=60-79% damage) | 4 (4=60-79% damage) | 5 (5=80-100% damage) | 5 (5=80-100% damage) | 5 (5=80-100% damage) | 5 (5=80-100% damage) | 5 (5=80-100% damage)
CC#Cc1ccc(-c2cnn(C)c(=O)c2O)c(S(C)(=O)=O)c1 [Compound 2.029] | 5 (5=80-100% damage) | 5 (5=80-100% damage) | 5 (5=80-100% damage) | 5 (5=80-100% damage) | 5 (5=80-100% damage) | 3 (3=40-59% damage) | 1 (1=0-19% damage) | 5 (5=80-100% damage) | 5 (5=80-100% damage) | 5 (5=80-100% damage) | 5 (5=80-100% damage) | 5 (5=80-100% damage)
Cn1ncc(-c2ccc(OCC(F)(F)F)cc2S(C)(=O)=O)c(O)c1=O [Compound 2.030] | 5 (5=80-100% damage) | 5 (5=80-100% damage) | 5 (5=80-100% damage) | 5 (5=80-100% damage) | 5 (5=80-100% damage) | 5 (5=80-100% damage) | 4 (4=60-79% damage) | 5 (5=80-100% damage) | 5 (5=80-100% damage) | 5 (5=80-100% damage) | 5 (5=80-100% damage) | 5 (5=80-100% damage)
Cc1ccc(-c2cnn(C)c(=O)c2O)c(S(C)(=O)=O)c1 [Compound 2.031] | 5 (5=80-100% damage) | 5 (5=80-100% damage) | 4 (4=60-79% damage) | 5 (5=80-100% damage) | 5 (5=80-100% damage) | 5 (5=80-100% damage) | 3 (3=40-59% damage) | 5 (5=80-100% damage) | 5 (5=80-100% damage) | 5 (5=80-100% damage) | 4 (4=60-79% damage) | 5 (5=80-100% damage)
Cn1ncc(-c2ccc([N+](=O)[O-])cc2S(C)(=O)=O)c(O)c1=O [Compound 2.032] | 5 (5=80-100% damage) | 5 (5=80-100% damage) | 3 (3=40-59% damage) | 5 (5=80-100% damage) | 5 (5=80-100% damage) | 2 (2=20-39% damage) | 3 (3=40-59% damage) | 4 (4=60-79% damage) | 5 (5=80-100% damage) | 5 (5=80-100% damage) | 2 (2=20-39% damage) | 5 (5=80-100% damage)

— patent US9693556B2, “Herbicidal pyridazinone derivatives” (SYNGENTA LIMITED, priority 2011, dated 2017)
